Laboratory results published in patent US7456291B2, “Use of a vitamin combination for the treatment of primary headaches” (priority 2000, dated 2008).
Where two headings read alike, the source gives them in different places.

What was measured:
[1] = tested on: classical migraine (migraine with an aura); assay: Clinical cases: treatment of classical migraine (migraine with an aura); format: in vivo, human patient; conditions: 2nd series, 50 mg nicotinamide alone orally twice a day
Experimental: 1st case—a person with a classical migraine (or a migraine with an aura). The patient had been suffering from classical migraine symptoms for 30 years. Initially, the symptoms were located in the right temporal region and later spread to the top and to the left temple with characteristic pulsations, accompanied by photophobia, vertigo and buzzing ears. The attacks lasted for about 10 days on a monthly basis.
Later, during a migraine attack, the patient started a treatment based on 50 mg of nicotinamide+2.5 mg of riboflavin taken orally twice a day. […] During this period the patient had completely suspended the old therapy. They continued with the new treatment, according to the present invention, for another 7 days to then temporarily suspend it. Later on, the dosage was halved for 10 days a month for preventive purposes.
1st case—person one with a classical migraine (or migraine with an aura). The patient had been suffering from classical migraine symptoms for 15 years and had photophobia, flashing scotoma and vertigo. […] The symptoms were located on the right side, occurred about twice a month and lasted a week, on average. When suffering from migraines the patient could not perform any activity. The acute episodes were preceded by photophobia, buzzing ears and visual disorders (scotoma). […]

[2] = tested on: common migraine (migraine without an aura); assay: Clinical cases: treatment of common migraine (migraine without an aura); format: in vivo, human patient; conditions: 2nd series, 3rd case; 50 mg nicotinamide alone orally twice a day
[3] = tested on: complicated migraine; assay: Clinical cases: treatment of complicated migraine; format: in vivo, human patient; conditions: 2nd series, 2nd case; 50 mg nicotinamide alone orally twice a day
[4] = tested on: cluster headaches; assay: Clinical cases: treatment of cluster headaches; format: in vivo, human patient; conditions: 2nd series, 4th case; 50 mg nicotinamide alone orally twice a day
Experimental: 4th case—a person with cluster headaches. The patient had been suffering from nocturnal headaches for about 15 years. The headaches started about 3 hours after sleep onset and presented a left orbital pain, lachrymation, nasal congestion and an oedema of the left cheek.
They continued with the therapy for another 15 days and then the dosage was halved and treatment continued for 15 days a month.
4th case—a person with cluster headaches. The patient suffered from cluster headaches that made them wake up in the night with lacerating head pains. The pains were accompanied by lachrymation and rhinorrhea.

[5] = tested on: primary headaches (common, classical, complicated migraine, cluster headache); assay: Clinical experimentation in primary headache forms, overall statements; conditions: single agent; for effectiveness in combating the forms of headache considered: systemic administration at the typical dosage used for pellagra
[6] = tested on: primary headaches (common, classical, complicated migraine, cluster headache); conditions: human, in vivo

| secondary reactions reported for high doses ([5]; systemic administration in doses well below those for hypercholesterolemy) | secondary reactions reported for high doses [6] | SMILES | time until migraine symptoms attenuated ([1]; 1st case one) [days] | complete disappearance of migraine symptoms ([1]; 1st case) | time until the migraine returned (lesser intensity) under continued treatment ([1]; 1st case) | time until the migraine was partially attenuated [2] | time until the problem was attenuated [3] [days] | time until the headaches attenuated [4] [days] | effectiveness in combating the forms of headache considered [5] |
| --- | --- | --- | --- | --- | --- | --- | --- | --- | --- |
| does not lead to the secondary reactions | – | NC(=O)c1cccnc1 [nicotinamide] | 5 | did not disappear completely | about 10 days | about 5 days | 6 | 5 to 6 | not very effective |
| – | does not lead to the secondary reactions | O=C(O)c1cccnc1 [nicotinic acid, 3-pyridincarboxylic acid] | – | – | – | – | – | – | not very effective |
